Laboratory results as given in PubChem BioAssay AID256 (DTP/NCI, 2004).
Values joined by “and” are separate entries in the source; they are usually repeats but may differ in a detail not shown here. Identical values can stand only once. Toxic doses and inconclusive results are not listed.

Tested on: CD2F1 mice, L1210 leukemia ip, survival T/C
Experiment: NCI In Vivo Anticancer Drug Screen. Data for tumor model L1210 Leukemia (intraperitoneal) in CD2F1 (CDF1) mice
Details: higher = longer survival
Summary of the method: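 Tumor-bearing mice (transplanted tumor) were split into treated and vehicle control groups, and the measured endpoint of each treated group was divided by that of its vehicle controls.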

Nc1ncn(C2OC(CO)C(O)C2O)c(=O)n1 (stereo unspecified)
T/C (endpoint: mean survival time, dose: 1.56 mg/kg/injection, schedule: Q01DX009 (ip), vehicle: saline): 155 % of control and 166 % of control
T/C (endpoint: mean survival time, dose: 1.56 mg/kg/injection, schedule: Q04DX003 (ip), vehicle: saline): 117 % of control
T/C (endpoint: mean survival time, dose: 3.12 mg/kg/injection, schedule: Q01DX009 (ip), vehicle: saline): 176 % of control
T/C (endpoint: mean survival time, dose: 3.12 mg/kg/injection, schedule: Q03HX024 (ip), vehicle: saline): 296 % of control
T/C (endpoint: mean survival time, dose: 3.12 mg/kg/injection, schedule: Q04DX003 (ip), vehicle: saline): 119 % of control and 120 % of control and 123 % of control
T/C (endpoint: mean survival time, dose: 6.25 mg/kg/injection, schedule: Q03HX024 (ip), vehicle: saline): 325 % of control
T/C (endpoint: mean survival time, dose: 6.25 mg/kg/injection, schedule: Q04DX003 (ip), vehicle: saline): 121 % of control and 123 % of control
T/C (endpoint: mean survival time, dose: 10.0 mg/kg/injection, schedule: Q04DX003 (ip), vehicle: saline): 112 % of control
T/C (endpoint: mean survival time, dose: 12.5 mg/kg/injection, schedule: Q03HX024 (ip), vehicle: saline): 353 % of control
T/C (endpoint: mean survival time, dose: 12.5 mg/kg/injection, schedule: Q04DX003 (ip), vehicle: saline): 151 % of control
T/C (endpoint: mean survival time, dose: 25.0 mg/kg/injection, schedule: Q03HX024 (ip), vehicle: saline): 295 % of control
T/C (endpoint: mean survival time, dose: 25.0 mg/kg/injection, schedule: Q04DX003 (ip), vehicle: saline): 167 % of control
T/C (endpoint: mean survival time, dose: 50.0 mg/kg/injection, schedule: Q03HX024 (ip), vehicle: saline): 248 % of control
T/C (endpoint: mean survival time, dose: 50.0 mg/kg/injection, schedule: Q04DX003 (ip), vehicle: saline): 163 % of control and 173 % of control
T/C (endpoint: mean survival time, dose: 100.0 mg/kg/injection, schedule: Q03HX024 (ip), vehicle: saline): 124 % of control
T/C (endpoint: mean survival time, dose: 200.0 mg/kg/injection, schedule: Q04DX003 (ip), vehicle: saline): 182 % of control and 190 % of control and 200 % of control
T/C (endpoint: mean survival time, dose: 400.0 mg/kg/injection, schedule: Q04DX003 (ip), vehicle: saline): 222 % of control
T/C (endpoint: mean survival time, dose: 800.0 mg/kg/injection, schedule: Q04DX003 (ip), vehicle: saline): 269 % of control
T/C (endpoint: mean survival time, dose: 1600.0 mg/kg/injection, schedule: Q04DX003 (ip), vehicle: saline): 222 % of control
T/C (endpoint: median survival time, dose: 1.56 mg/kg/injection, schedule: Q01DX009 (ip), vehicle: other): 156 % of control
T/C (endpoint: median survival time, dose: 2.3 mg/kg/injection, schedule: Q03HX024 (ip), vehicle: DMSO): 292 % of control
T/C (endpoint: median survival time, dose: 3.12 mg/kg/injection, schedule: Q01DX009 (ip), vehicle: other): 163 % of control and 172 % of control
T/C (endpoint: median survival time, dose: 3.12 mg/kg/injection, schedule: Q01DX009 (ip), vehicle: saline): 162 % of control and 177 % of control
T/C (endpoint: median survival time, dose: 4.0 mg/kg/injection, schedule: Q03HX024 (ip), vehicle: saline): 348 % of control
T/C (endpoint: median survival time, dose: 6.25 mg/kg/injection, schedule: Q01DX009 (ip), vehicle: DMSO): 210 % of control and 228 % of control
T/C (endpoint: median survival time, dose: 6.25 mg/kg/injection, schedule: Q01DX009 (ip), vehicle: other): 192 % of control and 193 % of control
T/C (endpoint: median survival time, dose: 6.25 mg/kg/injection, schedule: Q01DX009 (ip), vehicle: saline): 198 % of control and 202 % of control and 212 % of control
T/C (endpoint: median survival time, dose: 6.25 mg/kg/injection, schedule: Q01DX009 (oral), vehicle: DMSO): 191 % of control
T/C (endpoint: median survival time, dose: 7.0 mg/kg/injection, schedule: Q03HX008 (ip), vehicle: DMSO): 179 % of control
T/C (endpoint: median survival time, dose: 11.2 mg/kg/injection, schedule: Q01DX005 (ip), vehicle: DMSO): 181 % of control
T/C (endpoint: median survival time, dose: 11.2 mg/kg/injection, schedule: Q01DX005 (iv), vehicle: DMSO): 176 % of control
T/C (endpoint: median survival time, dose: 12.5 mg/kg/injection, schedule: Q01DX009 (ip), vehicle: DMSO): 224 % of control and 258 % of control
T/C (endpoint: median survival time, dose: 12.5 mg/kg/injection, schedule: Q01DX009 (ip), vehicle: other): 214 % of control and 219 % of control
T/C (endpoint: median survival time, dose: 12.5 mg/kg/injection, schedule: Q01DX009 (oral), vehicle: DMSO): 225 % of control
T/C (endpoint: median survival time, dose: 14.0 mg/kg/injection, schedule: Q03HX008 (ip), vehicle: DMSO): 174 % of control
T/C (endpoint: median survival time, dose: 22.5 mg/kg/injection, schedule: Q01DX005 (ip), vehicle: DMSO): 187 % of control
T/C (endpoint: median survival time, dose: 22.5 mg/kg/injection, schedule: Q01DX005 (iv), vehicle: DMSO): 201 % of control
T/C (endpoint: median survival time, dose: 25.0 mg/kg/injection, schedule: Q01DX009 (ip), vehicle: DMSO): 260 % of control and 273 % of control
T/C (endpoint: median survival time, dose: 25.0 mg/kg/injection, schedule: Q01DX009 (ip), vehicle: other): 237 % of control and 265 % of control
T/C (endpoint: median survival time, dose: 25.0 mg/kg/injection, schedule: Q01DX009 (oral), vehicle: DMSO): 233 % of control
T/C (endpoint: median survival time, dose: 28.1 mg/kg/injection, schedule: Q03HX008 (ip), vehicle: DMSO): 186 % of control
T/C (endpoint: median survival time, dose: 30.0 mg/kg/injection, schedule: Q01DX009 (ip), vehicle: saline): 267 % of control and 278 % of control
T/C (endpoint: median survival time, dose: 37.5 mg/kg/injection, schedule: Q04DX003 (ip), vehicle: DMSO): 163 % of control
T/C (endpoint: median survival time, dose: 44.0 mg/kg/injection, schedule: Q01DX009 (ip), vehicle: saline): 278 % of control and 284 % of control
T/C (endpoint: median survival time, dose: 45.0 mg/kg/injection, schedule: Q01DX005 (ip), vehicle: DMSO): 208 % of control
T/C (endpoint: median survival time, dose: 45.0 mg/kg/injection, schedule: Q01DX005 (iv), vehicle: DMSO): 212 % of control
T/C (endpoint: median survival time, dose: 50.0 mg/kg/injection, schedule: Q01DX009 (ip), vehicle: DMSO): 289 % of control and 310 % of control
T/C (endpoint: median survival time, dose: 50.0 mg/kg/injection, schedule: Q01DX009 (ip), vehicle: other): 262 % of control and 289 % of control
T/C (endpoint: median survival time, dose: 50.0 mg/kg/injection, schedule: Q01DX009 (oral), vehicle: DMSO): 266 % of control
T/C (endpoint: median survival time, dose: 56.2 mg/kg/injection, schedule: Q01DX001 (ip), vehicle: DMSO): 123 % of control
T/C (endpoint: median survival time, dose: 56.2 mg/kg/injection, schedule: Q03HX008 (ip), vehicle: DMSO): 191 % of control
T/C (endpoint: median survival time, dose: 67.0 mg/kg/injection, schedule: Q01DX009 (ip), vehicle: saline): 326 % of control and 328 % of control
T/C (endpoint: median survival time, dose: 75.0 mg/kg/injection, schedule: Q04DX003 (ip), vehicle: DMSO): 173 % of control
T/C (endpoint: median survival time, dose: 90.0 mg/kg/injection, schedule: Q01DX005 (ip), vehicle: DMSO): 221 % of control
T/C (endpoint: median survival time, dose: 90.0 mg/kg/injection, schedule: Q01DX005 (iv), vehicle: DMSO): 242 % of control
T/C (endpoint: median survival time, dose: 100.0 mg/kg/injection, schedule: Q01DX009 (ip), vehicle: DMSO): 172 % of control
T/C (endpoint: median survival time, dose: 100.0 mg/kg/injection, schedule: Q01DX009 (ip), vehicle: other): 150 % of control and 277 % of control
T/C (endpoint: median survival time, dose: 100.0 mg/kg/injection, schedule: Q01DX009 (oral), vehicle: DMSO): 310 % of control
T/C (endpoint: median survival time, dose: 112.5 mg/kg/injection, schedule: Q03HX008 (ip), vehicle: DMSO): 198 % of control
T/C (endpoint: median survival time, dose: 150.0 mg/kg/injection, schedule: Q04DX003 (ip), vehicle: DMSO): 198 % of control
T/C (endpoint: median survival time, dose: 180.0 mg/kg/injection, schedule: Q01DX005 (ip), vehicle: DMSO): 242 % of control
T/C (endpoint: median survival time, dose: 180.0 mg/kg/injection, schedule: Q01DX005 (iv), vehicle: DMSO): 276 % of control
T/C (endpoint: median survival time, dose: 200.0 mg/kg/injection, schedule: Q01DX009 (ip), vehicle: DMSO): 123 % of control
T/C (endpoint: median survival time, dose: 225.0 mg/kg/injection, schedule: Q01DX001 (iv), vehicle: DMSO): 157 % of control
T/C (endpoint: median survival time, dose: 225.0 mg/kg/injection, schedule: Q03HX008 (ip), vehicle: DMSO): 180 % of control
T/C (endpoint: median survival time, dose: 300.0 mg/kg/injection, schedule: Q04DX003 (ip), vehicle: DMSO): 243 % of control
T/C (endpoint: median survival time, dose: 400.0 mg/kg/injection, schedule: Q01DX009 (ip), vehicle: DMSO): 117 % of control
T/C (endpoint: median survival time, dose: 400.0 mg/kg/injection, schedule: Q01DX009 (ip), vehicle: saline): 113 % of control
T/C (endpoint: median survival time, dose: 400.0 mg/kg/injection, schedule: Q01DX009 (oral), vehicle: DMSO): 117 % of control
T/C (endpoint: median survival time, dose: 600.0 mg/kg/injection, schedule: Q04DX003 (ip), vehicle: DMSO): 252 % of control
T/C (endpoint: median survival time, dose: 900.0 mg/kg/injection, schedule: Q01DX001 (ip), vehicle: DMSO): 162 % of control
T/C (endpoint: median survival time, dose: 1200.0 mg/kg/injection, schedule: Q04DX003 (ip), vehicle: DMSO): 284 % of control
T/C (endpoint: median survival time, dose: 1800.0 mg/kg/injection, schedule: Q01DX001 (ip), vehicle: DMSO): 191 % of control
T/C (endpoint: median survival time, dose: 2400.0 mg/kg/injection, schedule: Q04DX003 (ip), vehicle: DMSO): 290 % of control
T/C (endpoint: median survival time, dose: 3600.0 mg/kg/injection, schedule: Q01DX001 (ip), vehicle: DMSO): 223 % of control

O=C(O)C(=O)O.O=C(O)C(=O)O.O=C(O)C(=O)O.[Co]
T/C (endpoint: mean survival time, dose: 50.0 mg/kg/injection, schedule: Q04DX002 (ip), vehicle: saline): 93 % of control
